Reference: article PMC7180452, “Purine and Purine Isostere Derivatives of Ferrocene: An Evaluation of ADME, Antitumor and Electrochemical Properties” (Molecules, 2020)
Entries after “also recorded” stand apart in the source; their conditions may differ.

Tests used:
[1] = system: cervical carcinoma (HeLa); experiment: In vitro antiproliferative activity, HeLa; assay type: cell-based, human; conditions: HeLa cells
Protocol: (§1) Antiproliferative activity of compounds 11a−11c, 12a−12c, 13a−13c, 14a−14c, 15a−15c, 16a, 23a−23c, 24a−24c, 25a−25c, 34a−34c and 35a−35c was evaluated in vitro on four human tumor cell lines (American Type Culture Collection, Manassas, VA, USA): metastatic colorectal adenocarcinoma (SW620), ductal pancreatic adenocarcinoma (CFPAC-1), hepatocellular carcinoma (HepG2) and cervical carcinoma (HeLa) as well as normal skin fibroblasts (HFF).

[2] = system: hepatocellular carcinoma (HepG2); experiment: In vitro antiproliferative activity, HepG2; assay type: cell-based, human; conditions: HepG2 cells
Protocol: as §1

[3] = Square-wave and cyclic voltammetry on glassy carbon electrode; assay type: physicochemical; conditions: SWV, 0.5 mol/L NaClO4, pH 9, vs Ag/AgCl
From the text: The electrochemical properties of 6-chloro-7-deazapurine and 6-chloropurine derivatives of ferrocene 11c, 13a and 15b on a glassy carbon electrode were studied using cyclic (CV) and square-wave voltammetry (SWV) in aqueous electrolyte solutions over a wide pH range. The pH was varied from 2 to 10 in order to determine the effect of pH on the voltammograms (net peak currents and potentials). […] The pH of the solution affects the voltammetric response of this compound, i.e., the oxidation of evaluated compounds 11c, 13a and 15b is strongly dependent on it.
The forward (if) and backward (ib) components of the net response (Δi = if − ib) are shown as well (inset in Figure 2). […] The peak P1 occurs in all supporting electrolytes (i.e., at 2 ≤ pH ≤ 10), while the peak P2 is only observed at pH ≥ 9 (see Figure 1). The potential of peak P1 is pH-independent. Comparing to the literature data, peak P1 can be ascribed to the following charge transfer reaction [Fe^II(C5H5)2] ⇌ [Fe^III(C5H5)2]^+ + e^− [44, 48].
All chemicals used in the experiments were of the best grade commercially available (Sigma-Aldrich) and were used without further purification. Stock standard solutions of compounds 11c, 13a, 15b (c = 2.0 × 10^−3 mol/L) and 6-chloropurine (c = 1.2 × 10^−2 mol/L) were prepared from dry pure substances in dimethyl sulfoxide (DMSO, p.a.), purchased from Kemika (Zagreb, Croatia). Stock standard solution of ethynyl ferrocene (c = 1.1 × 10^−2 mol/L) was prepared from dry pure substance in ethanol (Kemika). For the supporting electrolyte, analytical grade NaClO4 (Kemika) was used. Water was deionized by the Millipore Milli-Q system to the resistivity ≥ 18 MΩcm. Voltammetric measurements were carried out using the computer-controlled electrochemical system „PGSTAT 101“ (Eco-Chemie, Utrecht, The Netherlands), controlled by the electrochemical software “NOVA 1.5”. A three-electrode system (BioLogic, Claix, France) with glassy carbon electrode (GCE) of 3 mm in diameter as a working electrode, Ag/AgCl (3 mol/L NaCl) as a reference electrode and a platinum wire as a counter electrode were used. All potentials were expressed versus Ag/AgCl (3 mol/L NaCl) reference electrode. The supporting electrolyte (0.5 mol/L NaClO4), adjusted to the desired pH value, was placed in the electrochemical cell and the required aliquot of the standard analyte solution was added. The solution in the electrochemical cell was degassed with high purity nitrogen for 10 min before measurement, and the nitrogen blanket was maintained thereafter. Before each run, the glassy carbon working electrode was polished with diamond suspension in spray (grain size 6 µm) and rinsed with ethanol and deionized water. All experiments were performed at room temperature. The presented results are reported as the mean value of three independent measurements.

[4] = system: ductal pancreatic adenocarcinoma (CFPAC-1); experiment: In vitro antiproliferative activity, CFPAC-1; assay type: cell-based, human; conditions: CFPAC-1 cells
Protocol: as §1

[5] = system: normal skin fibroblasts (HFF); experiment: Cytotoxicity on non-tumor cells, HFF; assay type: cell-based, human
Protocol: as §1

[6] = system: metastatic colorectal adenocarcinoma (SW620); experiment: In vitro antiproliferative activity, SW620; assay type: cell-based, human; conditions: SW620 cells
Protocol: as §1

[7] = Metabolic stability in human liver microsomes; assay type: in vitro ADME; conditions: for t1/2: 1 µM; for In Vivo CLh / In Vivo CLh (% LBF): human; for In Vivo CLh: predicted in vivo hepatic clearance; for In Vivo CLh (% LBF): predicted, % of liver blood flow
Protocol: Metabolic stability of compounds was assessed in human and mouse liver microsomes (Corning, Tewksbury, MA, USA). Compounds, in final concentration of 1 µM, were incubated in phosphate buffer (50 mM, pH 7.4) for 60 min at 37 °C together with liver microsomes and NADPH generating system (nicotinamide adenine dinucleotide phosphate (NADP, 0.5 mM), glucose-6-phosphate (G6P, 5 mM), glucose-6-phosphate dehydrogenase (1.5 U mL^−1) and magnesium chloride (0.5 mM)). Also, compounds were incubated without the presence of NADPH cofactor, as a buffer stability control. Metabolic activity of liver microsomes was verified by including testosterone and propranolol as positive controls, as well as caffeine as a negative control. Sampling was performed at six time points (0, 10, 20, 30, 45 and 60 min), followed by reaction termination by addition of acetonitrile/methanol mixture (2:1, v/v) containing dicofenac as internal standard. Samples were analyzed as previously described for samples from permeability assay. The in vitro half-life (t1/2) was calculated from the slope of the linear regression by plotting ln % remaining of parent compound against incubation time. In vitro intrinsic clearance, CLint was calculated from half-life using following Equation (3):(3) CLint [µL min^−1 mg^−1]=ln2/t1/2×mL per incubation/mg protein per incubation where 52.5 mg protein/g liver is used as a constant.
Predicted in vivo hepatic clearance, in vivo CLh was calculated as follows:(4) in vivo CLh [mL min^−1 kg^−1]=CLint×(mg protein/g liver)×Q×(LW/BW) /Q+(CLint×(mg protein/g liver)×(LW/BW)) where: LW/BW = liver weight/body weight [g kg^−1]; 25.7 (human), 87.5 (mouse); Q = LBF = liver blood flow [mL min^−1 kg^−1]; 21/1.26 (human), 131/7.86 (mouse).
Predicted in vivo hepatic clearance can be expressed as %LBF and calculated as follows:(5) in vivo CLh [%LBF]=in vivo CLh/LBF×100

[8] = Turbidimetric kinetic solubility assay; conditions: for Kinetic Solubility: PBS, 1% DMSO, 37 °C, 2 h, estimated range; for Solubility classification: kinetic solubility, in words
Protocol: The turbidimetric solubility assay, which allows a rapid determination of the kinetic solubility of newly synthesized compounds using small amounts of their DMSO solutions, was used to assess the kinetic solubility [38].
The compounds’ DMSO stock solutions in concentration of 10 mM were serially diluted by factor 3.3×, 3×, 3.3× and 3× in DMSO. Prepared solutions were spiked into phosphate-buffered saline (PBS, 100 mM) to obtain final compounds’ concentrations of 100, 30, 10, 3 and 1 µM (3 µL of prepared dilutions were spiked to 297 µL of PBS, with final DMSO content of 1%, v/v). All compounds were tested in two replicas per concentration. Prepared solutions were incubated at 37 °C for 2 h with gentle shaking. Blank solutions were also prepared by spiking DMSO in PBS buffer (1% of DMSO, v/v). […] Compound/control samples are compared to the blank solution. […] Results were expressed as an estimated solubility range (lower and upper bound).

SMILES	IC50 [1] [µM]	IC50 [2] [µM]	Oxidation peak P1 potential (ferrocene) [3]	Oxidation peak P2 potential (triazole) [3]	IC50 [4] [µM]	IC50 [5] [µM]	IC50 [6] [µM]	t1/2 ([7]; human liver microsomes) [min]	In Vivo CLh [7] [mL/min/kg]	In Vivo CLh (% LBF) [7] [% LBF]	Kinetic Solubility [8] [µM]	Metabolic stability classification ([7]; human liver microsomes, in words)	Solubility classification [8]
Clc1ncnc2c1ccn2Cc1cn(-[c-]2cccc2)nn1.[Fe+2].c1cc[cH-]c1 [Compound 11c, 4-Chloro-7-[1-(1-ferrocenyl-1,2,3-triazol-1-yl)methyl]-7H-pyrrolo[2,3-d]pyrimidine]	27.7 ± 3.23	31.9 ± 4.32	~ 0.4 V	~ 1.1 V	35 ± 5.44	5.89 ± 1.88	9.07 ± 1.21	4.1	24.3	95	3 to 10		
Clc1ncnc2c1ncn2Cc1cn(C[c-]2cccc2)nn1.[Fe+2].c1cc[cH-]c1 [Compound 13a, 6-Chloro-9-[1-(1-ferrocenymethyl-1,2,3-triazol-4-yl)methyl]-9H-purine]	25.2 ± 4.31	19.9 ± 5.12	~ 0.4 V	~ 1.1 V	22.8 ± 4.31	3.98 ± 0.17	14.4 ± 3.02	38.6	16.8	65	>100	good metabolic stability; also recorded: moderately stable; also recorded: moderate stability	high solubility
CC([c-]1cccc1)n1cc(Cn2cnc3ncnc(Cl)c32)nn1.[Fe+2].c1cc[cH-]c1 (stereo not drawn) [Compound 15b, 6-Chloro-7-[1-(1-ferrocenyl-1-methylmethyl-1,2,3-triazol-4-yl)methyl]-7H-purine]	28.97 ± 0.09	37.1 ± 1.84	~ 0.4 V	~ 1.1 V	28.6 ± 2.68	0.88 ± 1.06	15.5 ± 3.24	19.0	20.4	79	>100		high solubility
